Experimental data reported in PubChem BioAssay (NCI).
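Assay format: 96-well plates, 48-hour exposure. The concentration for full growth arrest is given as TGI.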

Columns and labels:
Experiment in all cases: NCI anticancer screen, dose series, 48 h
A498 renal = tested on: A498 renal
A549 NSCLC = tested on: A549 NSCLC
ACHN renal = tested on: ACHN renal
HL-60(TB) leukemia = tested on: HL-60(TB) leukemia
MALME-3M melanoma = tested on: MALME-3M melanoma
NCI-H226 lung = tested on: NCI-H226 lung
NCI-H460 lung = tested on: NCI-H460 lung
NCI/ADR-RES ovarian = tested on: NCI/ADR-RES ovarian
OVCAR-5 ovarian = tested on: OVCAR-5 ovarian
RXF 393 renal = tested on: RXF 393 renal
SF-268 CNS = tested on: SF-268 CNS
SR leukemia = tested on: SR leukemia
SW-620 colon = tested on: SW-620 colon
U251 CNS = tested on: U251 CNS
NCI-H522 lung = tested on: NCI-H522 lung

| SMILES | TGI (A498 renal) [µM] | TGI (A549 NSCLC) [µM] | TGI (ACHN renal) [µM] | TGI (HL-60(TB) leukemia) [µM] | TGI (MALME-3M melanoma) [µM] | TGI (NCI-H226 lung) [µM] | TGI (NCI-H460 lung) [µM] | TGI (NCI/ADR-RES ovarian) [µM] | TGI (OVCAR-5 ovarian) [µM] | TGI (RXF 393 renal) [µM] | TGI (SF-268 CNS) [µM] | TGI (SR leukemia) [µM] | TGI (SW-620 colon) [µM] | TGI (U251 CNS) [µM] | TGI (NCI-H522 lung) [µM] |
| --- | --- | --- | --- | --- | --- | --- | --- | --- | --- | --- | --- | --- | --- | --- | --- |
| COc1cc2c(cc1OC)C(=O)/C(=C/c1ccc(Cl)cc1)CC2 | > 10 | > 10 | > 10 | > 10 | > 10 | > 10 | > 10 | > 10 | > 10 | > 10 | > 10 | > 10 | > 10 | > 10 | – |
| COc1cc(-c2cc(-c3ccccc3)nc(-c3c(OC)ccc4c(C)cc(=O)oc34)c2)cc(OC)c1OC | > 100 | > 100 | > 100 | > 100 | > 100 | > 100 | > 100 | > 100 | – | > 100 | > 100 | > 100 | > 100 | > 100 | > 100 |
| CCCCCCC(=O)O[C@H]1CC[C@H]2[C@@H]3CCC4C/C(=N/NC(=O)c5cccc6c(=O)c7ccccc7[nH]c56)C=C(C)[C@]4(C)[C@H]3CC[C@]12C (some centres undefined) | – | > 25 | > 25 | > 25 | > 25 | > 25 | – | > 25 | > 25 | – | > 25 | > 25 | > 25 | > 25 | – |
| CC[C@]1(Cc2ccc(OC)c(OC)c2)C=[N+]([O-])O[C@H](OC2CCCC2(c2ccccc2)c2ccccc2)[C@@H]1OC(C)=O (some centres undefined) | – | 18.8 | 10.2 | 18.8 | 4.83 | – | 20.7 | 14.8 | 44.2 | 4.35 | 11.4 | > 100 | > 100 | > 62 | 9.77 |
| CC1=NN(c2nc(N)nc(CSc3nc4n(c(=S)n3)CCN4)n2)C(C)(C)C1 | > 100 | – | > 100 | > 100 | – | 53.1 | > 100 | > 100 | – | 38.7 | 35.2 | > 100 | > 100 | > 100 | – |
| C[C@H](NC(=O)c1ccc(CNC(=O)/C=C/c2cccc(Oc3ccccc3)c2)cc1)c1ccccc1 | > 100 | > 100 | > 100 | – | > 100 | > 100 | > 100 | > 100 | > 100 | 80.3 | > 100 | > 100 | > 100 | > 100 | > 100 |
| Cc1nn(C(=O)c2ccc(Cl)cc2)c2c1C(c1ccccc1[N+](=O)[O-])SC(N)=N2 (centres undefined) | – | > 10 | > 10 | > 10 | > 10 | > 10 | > 10 | > 10 | > 10 | 2.25 | > 10 | > 10 | > 10 | > 10 | > 10 |
| COC(=O)CNS(=O)(=O)c1ccc(-c2c3nc(c(-c4ccc(S(=O)(=O)NCC(=O)OC)cc4)c4ccc([nH]4)c(-c4ccc(S(=O)(=O)NCC(=O)OC)cc4)c4nc(c(-c5ccc(S(=O)(=O)NCC(=O)OC)cc5)c5ccc2[nH]5)C=C4)C=C3)cc1 | > 100 | > 100 | > 100 | > 100 | > 100 | – | > 100 | > 100 | > 100 | > 100 | > 100 | > 100 | > 100 | > 100 | > 100 |
| CC(=O)Oc1ccc(-c2cc3ccccc3oc2=O)cc1 | > 100 | > 100 | > 100 | > 100 | > 100 | > 100 | > 100 | > 100 | > 100 | – | > 100 | > 100 | > 100 | > 100 | > 100 |
| Cc1cc2c(cc1Cl)S(=O)(=O)OC(c1ccc([N+](=O)[O-])cc1)=N2 | > 100 | > 100 | > 100 | > 100 | > 100 | > 100 | > 100 | > 100 | – | > 100 | > 100 | > 100 | > 100 | > 100 | > 100 |
| CCSc1n/c(=C\c2ccco2)c2nncn12 | – | > 100 | > 100 | > 100 | > 100 | > 100 | – | > 100 | > 100 | – | > 100 | > 100 | > 100 | > 100 | > 100 |
| CN1CNc2nc(N)n(C)c(=O)c2C1 | – | > 10 | > 10 | > 10 | > 10 | > 10 | > 10 | > 10 | > 10 | > 10 | > 10 | > 10 | – | > 10 | > 10 |
| O=S(Nc1ccccc1)c1cccc(Cl)c1 (centres undefined) | – | > 100 | > 100 | > 100 | > 100 | > 100 | > 100 | > 100 | > 100 | > 100 | > 100 | > 100 | > 100 | > 100 | > 100 |
| COc1cc2c(cc1OCCCCN1C(=O)c3cccc4cccc(c34)C1=O)N=C[C@@H]1CCCN1C2=O | 13.9 | > 53.4 | 5.2 | – | 16.1 | 23.5 | 14.4 | 28.4 | > 100 | 3.63 | > 100 | > 100 | > 38.8 | > 33.9 | 4.59 |
| Cn1c(O)c(C=Nc2ccccc2[N+](=O)[O-])c(=O)n(C)c1=O | > 100 | > 100 | > 100 | – | > 100 | > 100 | > 100 | > 100 | > 100 | > 100 | > 100 | > 100 | > 100 | > 100 | > 100 |
| CC(=O)O[C@H]1C(=O)[C@@]2(C)[C@H]([C@H](OC(=O)c3ccccc3)[C@]3(O)C[C@H](OC(=O)[C@H](O)[C@@H](NC(=O)c4cccc(N=[N+]=[N-])c4)c4ccccc4)C(C)=C1C3(C)C)[C@]1(OC(C)=O)CO[C@@H]1C[C@@H]2O | 7.62 | > 25 | > 25 | < 0.0025 | > 25 | > 25 | > 25 | > 25 | 1.06 | 0.897 | > 25 | 0.162 | > 25 | 0.635 | – |
